Source: the NIST ThermoML archive (doi:10.1021/je5009125)
Numbers after ± are expanded uncertainties.

Assay: xn = mol fraction of the nth substance listed
Settings: Liquid; for mass density: Vibrating tube method; for viscosity: Vibrating wire viscometry

## O=C=O [carbon dioxide] + O
274.72 K, 30290 kPa, x1 = 0.0271
  mass density: 1030.1 ± 0.7 kg/m3
274.72 K, 50410 kPa, x1 = 0.0271
  mass density: 1038.8 ± 0.7 kg/m3
274.72 K, 70530 kPa, x1 = 0.0271
  mass density: 1047.2 ± 0.7 kg/m3
274.72 K, 100770 kPa, x1 = 0.0271
  mass density: 1059.2 ± 0.8 kg/m3
274.73 K, 15010 kPa, x1 = 0.0086
  mass density: 1012 ± 0.7 kg/m3
274.73 K, 30110 kPa, x1 = 0.0086
  mass density: 1019 ± 0.7 kg/m3
274.73 K, 50240 kPa, x1 = 0.0086
  mass density: 1028.1 ± 0.7 kg/m3
274.73 K, 70360 kPa, x1 = 0.0086
  mass density: 1036.8 ± 0.7 kg/m3
274.73 K, 100670 kPa, x1 = 0.0086
  mass density: 1049.3 ± 0.7 kg/m3
274.77 K, 15080 kPa, x1 = 0.0168
  mass density: 1017.3 ± 0.7 kg/m3
274.77 K, 30190 kPa, x1 = 0.0168
  mass density: 1024.1 ± 0.7 kg/m3
274.77 K, 50310 kPa, x1 = 0.0168
  mass density: 1033 ± 0.7 kg/m3
274.77 K, 70430 kPa, x1 = 0.0168
  mass density: 1041.6 ± 0.7 kg/m3
274.77 K, 100710 kPa, x1 = 0.0168
  mass density: 1053.9 ± 0.7 kg/m3
294.27 K, 15100 kPa, x1 = 0.0168
  viscosity: 1.049 ± 0.016 mPa·s
294.27 K, 30200 kPa, x1 = 0.0168
  viscosity: 1.044 ± 0.016 mPa·s
294.27 K, 50200 kPa, x1 = 0.0168
  viscosity: 1.044 ± 0.016 mPa·s
294.27 K, 70200 kPa, x1 = 0.0168
  viscosity: 1.041 ± 0.016 mPa·s
294.27 K, 96300 kPa, x1 = 0.0168
  viscosity: 1.046 ± 0.016 mPa·s
294.3 K, 15100 kPa, x1 = 0.0086
  viscosity: 1.013 ± 0.016 mPa·s
294.3 K, 30200 kPa, x1 = 0.0086
  viscosity: 1.014 ± 0.016 mPa·s
294.3 K, 50300 kPa, x1 = 0.0086
  viscosity: 1.012 ± 0.016 mPa·s
294.3 K, 70300 kPa, x1 = 0.0086
  viscosity: 1.008 ± 0.016 mPa·s
294.3 K, 96400 kPa, x1 = 0.0086
  viscosity: 1.008 ± 0.016 mPa·s
294.31 K, 30300 kPa, x1 = 0.0271
  viscosity: 1.096 ± 0.017 mPa·s
294.31 K, 50300 kPa, x1 = 0.0271
  viscosity: 1.095 ± 0.017 mPa·s
294.31 K, 70400 kPa, x1 = 0.0271
  viscosity: 1.097 ± 0.017 mPa·s
294.31 K, 96500 kPa, x1 = 0.0271
  viscosity: 1.1 ± 0.017 mPa·s
296.17 K, 15100 kPa, x1 = 0.0086
  mass density: 1008.6 ± 0.7 kg/m3
296.17 K, 30200 kPa, x1 = 0.0086
  mass density: 1015 ± 0.7 kg/m3
296.17 K, 50260 kPa, x1 = 0.0086
  mass density: 1023.4 ± 0.7 kg/m3
296.17 K, 70330 kPa, x1 = 0.0086
  mass density: 1031.4 ± 0.7 kg/m3
296.17 K, 100650 kPa, x1 = 0.0086
  mass density: 1042.9 ± 0.7 kg/m3
296.18 K, 30250 kPa, x1 = 0.0271
  mass density: 1025.3 ± 0.7 kg/m3
296.18 K, 50360 kPa, x1 = 0.0271
  mass density: 1033.4 ± 0.7 kg/m3
296.18 K, 70440 kPa, x1 = 0.0271
  mass density: 1041.2 ± 0.7 kg/m3
296.18 K, 100760 kPa, x1 = 0.0271
  mass density: 1052.6 ± 0.7 kg/m3
296.19 K, 15070 kPa, x1 = 0.0168
  mass density: 1013.3 ± 0.7 kg/m3
296.19 K, 30170 kPa, x1 = 0.0168
  mass density: 1019.7 ± 0.7 kg/m3
296.19 K, 50300 kPa, x1 = 0.0168
  mass density: 1027.9 ± 0.7 kg/m3
296.19 K, 70410 kPa, x1 = 0.0168
  mass density: 1035.9 ± 0.7 kg/m3
296.19 K, 100730 kPa, x1 = 0.0168
  mass density: 1047.3 ± 0.7 kg/m3
322.91 K, 15000 kPa, x1 = 0.0168
  viscosity: 0.568 ± 0.01 mPa·s
322.91 K, 30100 kPa, x1 = 0.0168
  viscosity: 0.573 ± 0.01 mPa·s
322.91 K, 50200 kPa, x1 = 0.0168
  viscosity: 0.578 ± 0.01 mPa·s
322.91 K, 70200 kPa, x1 = 0.0168
  viscosity: 0.584 ± 0.01 mPa·s
322.91 K, 96200 kPa, x1 = 0.0168
  viscosity: 0.592 ± 0.01 mPa·s
322.93 K, 15000 kPa, x1 = 0.0086
  viscosity: 0.56 ± 0.01 mPa·s
322.93 K, 30100 kPa, x1 = 0.0086
  viscosity: 0.564 ± 0.01 mPa·s
322.93 K, 50200 kPa, x1 = 0.0086
  viscosity: 0.568 ± 0.01 mPa·s
322.93 K, 70200 kPa, x1 = 0.0086
  viscosity: 0.573 ± 0.01 mPa·s
322.93 K, 96300 kPa, x1 = 0.0086
  viscosity: 0.582 ± 0.01 mPa·s
323.12 K, 70400 kPa, x1 = 0.0271
  viscosity: 0.606 ± 0.01 mPa·s
323.12 K, 96500 kPa, x1 = 0.0271
  viscosity: 0.615 ± 0.01 mPa·s
323.43 K, 15060 kPa, x1 = 0.0168
  mass density: 1002.5 ± 0.7 kg/m3
323.43 K, 30180 kPa, x1 = 0.0168
  mass density: 1008.8 ± 0.7 kg/m3
323.43 K, 50300 kPa, x1 = 0.0168
  mass density: 1016.9 ± 0.7 kg/m3
323.43 K, 70420 kPa, x1 = 0.0168
  mass density: 1024.6 ± 0.7 kg/m3
323.43 K, 70460 kPa, x1 = 0.0271
  mass density: 1029.6 ± 0.7 kg/m3
323.43 K, 100720 kPa, x1 = 0.0168
  mass density: 1035.7 ± 0.7 kg/m3
323.43 K, 100780 kPa, x1 = 0.0271
  mass density: 1040.7 ± 0.7 kg/m3
323.45 K, 15020 kPa, x1 = 0.0086
  mass density: 998.4 ± 0.7 kg/m3
323.45 K, 30130 kPa, x1 = 0.0086
  mass density: 1004.7 ± 0.7 kg/m3
323.45 K, 50250 kPa, x1 = 0.0086
  mass density: 1012.8 ± 0.7 kg/m3
323.45 K, 70360 kPa, x1 = 0.0086
  mass density: 1020.6 ± 0.7 kg/m3
323.45 K, 100720 kPa, x1 = 0.0086
  mass density: 1031.6 ± 0.7 kg/m3
348.32 K, 15050 kPa, x1 = 0.0086
  mass density: 984.8 ± 0.7 kg/m3
348.32 K, 30150 kPa, x1 = 0.0086
  mass density: 991.3 ± 0.7 kg/m3
348.32 K, 50270 kPa, x1 = 0.0086
  mass density: 999.5 ± 0.7 kg/m3
348.32 K, 70370 kPa, x1 = 0.0086
  mass density: 1007.3 ± 0.7 kg/m3
348.32 K, 100710 kPa, x1 = 0.0086
  mass density: 1018.6 ± 0.7 kg/m3
348.33 K, 70580 kPa, x1 = 0.0271
  mass density: 1015.3 ± 0.7 kg/m3
348.33 K, 100780 kPa, x1 = 0.0271
  mass density: 1026.8 ± 0.7 kg/m3
348.38 K, 30200 kPa, x1 = 0.0168
  mass density: 994.9 ± 0.7 kg/m3
348.38 K, 50320 kPa, x1 = 0.0168
  mass density: 1003.2 ± 0.7 kg/m3
348.38 K, 70450 kPa, x1 = 0.0168
  mass density: 1011.1 ± 0.7 kg/m3
348.38 K, 100740 kPa, x1 = 0.0168
  mass density: 1022.4 ± 0.7 kg/m3
373.03 K, 30100 kPa, x1 = 0.0168
  viscosity: 0.2932 ± 0.0062 mPa·s
373.03 K, 50200 kPa, x1 = 0.0168
  viscosity: 0.2989 ± 0.0062 mPa·s
373.03 K, 70200 kPa, x1 = 0.0168
  viscosity: 0.304 ± 0.0063 mPa·s
373.03 K, 96200 kPa, x1 = 0.0168
  viscosity: 0.3111 ± 0.0064 mPa·s
373.13 K, 15000 kPa, x1 = 0.0086
  viscosity: 0.286 ± 0.006 mPa·s
373.13 K, 30100 kPa, x1 = 0.0086
  viscosity: 0.291 ± 0.006 mPa·s
373.13 K, 50200 kPa, x1 = 0.0086
  viscosity: 0.297 ± 0.006 mPa·s
